For assay [1], the system named is ATG16L1^T300A homozygous human organoids. The assay can be described thus: human organoid viability assay, TNFα-induced death. In kind it is cell-based. The note with it: 50 ng/ml TNFα, 48 hours; 100 nM Ruxolitinib, 1 μM GSK547, 20 μM Necrostatin-1s, 2 μM NSA; P<0.0001. The protocol:
N=14 (Nonrisk) and 6 (T300A/T300A). Statistical significance was validated with Fisher's exact test. FIG. 13B depicts a combined organoid viability in (A). N=14 (Non-risk) and 6 (T300A/T300A). FIG. 13C and FIG. 13D depict representative images (FIG. 13C) and viability (FIG. 13D) of human small intestinal organoids stimulated with or without 50 ng/ml TNFα, 100 nM Ruxolitinib, 1 μM GSK547, 20 μM Necrostatin-1s (Nec-1s), and 2 μM necrosulfonamide (NSA) for 48 hours. Scale bars represent 400 μm. Data points in FIG. 13B represent an average viability of individual organoids in FIG. 12, and data points in FIG. […] are mean of technical replicates. At least 2 independent experiments were performed. ***p<0.001, ****p<0.0001.
Mouse small intestinal and colonic crypts were isolated and cultured. Crypts of proximal small intestine were counted and embedded in Matrigel at 10,000 crypts/ml and cultured in DMEM/F-12 in the presence of 100 IU penicillin and 100 μg/ml streptomycin (Corning), 125 μg/ml gentamicin (Gibco), 2 mM l-glutamine (Corning), 20 ng/ml mEGF (PeproTech), 100 ng/ml mNoggin (R&D Systems), and 500 ng/ml mR-Spondin 1 (R&D Systems), hereafter referred as ENR medium. Crypts of colon were counted and embedded in Matrigel and cultured in the ENR medium plus 50 ng/ml Wnt-3a, 1×B-27, and N-2 supplement (Thermo Fisher Scientific). Surface area of organoids was quantified with Image J. For organoid viability assays, crypts were embedded in 10 μl of Matrigel at 5,000 crypts/ml and cultured in 96-well culture plate in triplicate with or without 20 ng/ml mTNFα (PeproTech) and 100 nM Ruxolitinib (Selleckchem). Percent viable organoids was determined by daily quantification of the number of intact organoids. Opaque organoids with condensed structures or those that have lost adherence were excluded. Dead organoids were marked by staining with 100 μg/ml propidium iodide (SIGMA-ALDRICH). Human intestinal organoids were cultured (Neil et al., 2019, Nat Microbiol 4, 1737-1749). […]

The test system of another assay is Atg16L1^ΔIEC mice. The assay can be described thus: preclinical GVHD model: allo-HCT after chemotherapy conditioning, GSK547 or control chow. In kind it is in vivo, mouse. The note with it: GSK547 chow started 10 days before allo-HCT, P<0.05.

Excerpt for Atg16L1^ΔIEC mice: FIG. 1F depicts the survival of chemotherapy-pretreated Atg16L1^f/f (f/f) and Atg16L1^ΔIEC (ΔIEC) mice which received GSK547 or control chow and were transplanted with 5×10^6 T cell-depleted BM cells with 4×10^6 splenic T cells from donor LP/J mice. n=8 (f/f, control), 8 (ΔIEC, control), 8 (f/f, GSK547), and 8 (ΔIEC, GSK547). GSK547 was started 10 days before allo-HCT, and continued until the end of the study. FIG. 1G depicts the clinical disease scores evaluated every 7 days after allo-HCT. Data points in FIG. 1B, FIG. 1D, and FIG. 1F represent individual mice, and data points in FIG. 1C, FIG. 1E, and FIG. 1G are mean of clinical scores of viable mice. Bars represent means±SEM, and survival data in FIG. 1B, FIG. 1D, and FIG. 1F are combined results of 2 experiments performed independently. FIG. 1B, FIG. 1D, and FIG. 1F were analyzed with the Mantel-Cox log rank test.
In brief, female B6 background mice were intraperitoneally injected with busulfan (20 mg/kg/day) for 5 days, followed by cyclophosphamide (100 mg/kg/day) for 3 days. Days −2 and −1 were rest days. […] Recipient mice were monitored daily for survival and weekly quantified for clinical GVHD for 5 clinical parameters (weight loss, hunched posture, activity, fur ruffling, and skin lesions) on a scale from 0 to 2. […]

As to `CN1C(=O)NC(Cc2c[nH]c3c(Cl)cccc23)C1=O` (centres unmarked) [Necrostatin-1s], the “viability of human organoids, TNFα-induced death” value (shortened to “viability of human organoids”) in assay [1] is listed as “significantly protected”.

`N#Cc1cc(N2CCC(C(=O)N3N=CC[C@H]3c3cc(F)cc(F)c3)CC2)ncn1` [GSK547]: in assay [1], the “viability of human organoids” value is reported as “significantly protected”. Also, the “survival after allo-HCT” value with Atg16L1^ΔIEC mice (BM + T cells from LP/J donors) is on record as “significantly better survival”. The “clinical GVHD score after allo-HCT” value with Atg16L1^ΔIEC mice (scored every 7 days) is “significantly better”.

Take `COc1nccnc1NS(=O)(=O)c1ccc(NC(=O)/C=C/c2ccc([N+](=O)[O-])s2)cc1` [Necrosulfonamide]: the “viability of human organoids” value in assay [1] is listed as “significantly protected”.

(Values after patent publication US20210139857A1, “Intestinal organoid co-culture systems and methods for treating or preventing a disease or disorder associated with immune response-mediated tissue injury” (NEW YORK UNIVERSITY, priority 2019, published 2021).)
